Data on one molecule can be found in US10758536B2, “Method for treating shingles with N-methanocarbathymidine (N-MCT)” (priority 2015, dated 2020).

“Also recorded” adds a separate entry of the source.

Assay [1] concerns VZV. Put plainly: SCID-Hu mouse model of VZV replication, oral dose range. The assay is classed as in vivo, varicella-zoster virus. Here is the method:
SCID-hu mice with human skin xenografts were infected intradermally with VZV and treated orally twice daily with vehicle, PFA (positive control), or N-MCT at 5, 10, 20, 25, 50, or 100 mg/kg/day. Virus spread was measured daily by in vivo bioluminescence imaging (IVIS). […] The results were analyzed for statistical significance by ANOVA and Dunnett's post hoc test of multiple comparisons (GraphPad Prism).

The subject of assay [2] is VZV. Kind of assay: Skin organ culture topical Assay 1: dose dependence (carbopol gel). The assay is classed as cell-based, varicella-zoster virus. Here is the method: (§1) Place 36 mL deionized sterile water into small beaker with stir bar. Slowly waft 900 mg of carbopol (980 NF, Lot # CCONLCC013, Lubrizol Corp) into water, avoiding clumps. Add equal volume N-MCT in 20% hydroxypropyl-β-cyclodextrin (Sigma) at 2× to reach the desired concentration. Add 2 drops NaOH (18% solution) to attain a pH near 5.0. Store at 4° C. The 0.5% cidofovir gel was made in a similar manner except that cidofovir was dissolved in water. The DMSO vehicle was prepared by adding a 2% DMSO solution in water to the carbopol suspension at a 1:1 ratio. Hydroxypropyl-β-cyclodextrin (HPBCD) was prepared by mixing 5.0 g with 20 mL sterile water. Stock solution of N-MCT was prepared by dissolving 90 mg N-MCT in 9 mL 20% HPBCD and sonicating for 1 min.
A skin organ culture model was used to evaluate N-MCT as a topical treatment for VZV. Human skin explants were inoculated with VZV by scarification and treated daily from 1-4 days post infection with N-MCT (0.05, 0.5, or 5%) or cidofovir (0.5%, positive control) in a carbopol gel.
(§2) Human fetal skin was purchased from ABR and delivered by overnight courier on wet ice. The tissue was cleaned, disinfected in betadine and 70% ethanol, then cut into pieces approximately 1-cm^2. Each piece was inoculated with VZV-BAC-Luc strain that expresses firefly luciferase. Approximately 3 hours after inoculation, the pieces of skin were placed in NetWells above tissue culture medium and incubated overnight. The next day (Day 1) each piece of skin was soaked in D-luciferin for 45 min, and then scanned in the IVIS-50 instrument to measure Total Flux, which is a correlate of VZV pfu. The drug treatment began on Day 1 or later by spreading an aqueous gel (carbopol) containing N-MCT at concentrations of 0.05, 0.5, or 5% (see Assay 1 in Table 4 below). One group of skin was treated with cidofovir ([…] in carbopol gel) for a positive control. Each group contained 4-6 pieces of skin. The drug was applied daily until Day 5 (or other intervals), and then the skin pieces were scanned by IVIS to determine virus yield. […] The results were analyzed for statistical significance by ANOVA and Dunnett's post hoc test of multiple comparisons (GraphPad Prism).

In assay [3] the test system is VZV. Kind of assay: Skin organ culture topical Assay 2: delayed treatment. It counts as cell-based, varicella-zoster virus. Here is the method:
as §1, §2
This assay differs from Assay 1 in that the Vehicle was prepared with 10% HPBCD, which is the solvent for the N-MCT. Refer to Assay #2 in Table 4 above. Three groups were treated on Days 1-4 and scanned on Day 5, which is the typical assay protocol. Two groups were treated after a delay of several days, which more closely reflects a clinical scenario of zoster. All treated groups received the same preparation of 0.5% N-MCT in carbopol with 10% HPBCD. VZV yield was reduced in the Vehicle group during the treatment phase, and then rebounded. This was likely due to the effects of HPBCD, which has known antiviral properties. […] In contrast, VZV yield increased until Day 5 in the group that received no treatment until after this scan. The difference between this group and the Vehicle group was notable, since they were expected to be similar.

Assay [4] deals with VZV. Put plainly: Skin organ culture Assays 4 and 5: topical ointment vehicles. The assay is classed as cell-based, varicella-zoster virus. The source says:
Another objective of the invention was to test N-MCT at 0.5% in a variety of topical formulations in the SOC assay. The purpose was to determine the optimal topical formulation for N-MCT in full-thickness human skin. Human fetal skin was purchased from ABR and delivered by overnight courier on wet ice. The tissue was cleaned, disinfected in betadine and 70% ethanol, then cut into pieces approximately 1-cm^2. Each piece was inoculated with VZV-BAC-Luc strain that expresses firefly luciferase. Approximately 3 hours after inoculation, the pieces of skin were placed in NetWells above tissue culture medium and incubated overnight. The next day (Day 1) each piece of skin was soaked in D-luciferin for 45 min, and then scanned in the IVIS-50 instrument to measure Total Flux, which is a correlate of VZV pfu. The negative control group was not treated with drug or vehicle. The positive control drug treatment began on Day 1 by placing the skin, in NetWells, over medium containing 0.1 μg/mL N-MCT (see Table 5 below). The ointments were formulated with N-MCT by adding dry powder to the vehicle on a glass slab, then mixing thoroughly with a metal spatula. The ointments were warmed to 37° C. before spreading on the skin pieces with a Dacron swab. […] The virus yield in each piece of skin was calculated by dividing the Total Flux measured on Day 5 by Day […]

`Cc1cn([C@]23C[C@H](O)[C@@H](CO)[C@@H]2C3)c(=O)[nH]c1=O` [N-MCT, N-methanocarbathymidine]: the “VZV spread in mouse model, effectiveness” value in the assay with VZV [1] (5-100 mg/kg/day p.o. BID) was “prevents VZV spread; also recorded: effective”. Besides, the “VZV yield and growth rates compared to vehicle” value in the assay on VZV [1] (all doses, N-MCT 5-100 mg/kg/day BID, p<0.0001, ANOVA and Dunnett) is “significantly reduced”. In addition, the “doses more effective than control antiviral compounds (PAA, PFA, cidofovir)” value in the assay on VZV [1] (mouse model of virus replication) is on record as greater than 10 mg/kg/day. Further, the optimal dose entry in the assay on VZV [1] (p.o. BID, SCID-Hu mice) is listed as “approximately 20 mg/kg/day”. The “VZV yield compared to vehicle” value with VZV [2] (N-MCT 0.05, 0.5, 5% or cidofovir in carbopol gel, daily, p<0.0004) is on record as “significantly reduced”. The “VZV replication in skin explants, topical gel” value in the assay on VZV [2] (N-MCT 0.05-5%, cidofovir 0.5% in carbopol gel) was “prevented VZV replication”. Moreover, the “reduction of virus yield compared to the vehicle group” value with VZV [2] (all concentrations, topical carbopol gel, p=0.0004) is given as “approximately 100 fold”. Besides, the “effective topical concentration, as low as” value with VZV [2] (carbopol gel with 10% hydroxypropyl-β-cyclodextrin, human skin explants) is no less than 0.05%. Also, in the assay with VZV [3] (0.5% N-MCT QD 3-6 dpi, by Day 7), the “VZV yield, treatment on Days 3-6” value is “reduced to a similar low level”. Besides, the “VZV yield, treatment begun on Day 5” value with VZV [3] (0.5% N-MCT QD 5-8 dpi) was “decreased sharply”. Also, in the assay on VZV [3] (0.5% N-MCT in carbopol with 10% HPBCD), the “VZV rebound after treatment on Days 1-4” value is on record as “no rebound was observed”. Also, the “VZV yield, treatment on Days 1-4” value in the assay with VZV [3] (0.5% in carbopol QD 1-4 dpi, during and after treatment) is recorded as “equally reduced”. Also, the “effectiveness as topical treatment when VZV infection established for 3-5 days” value with VZV [3] (skin organ culture) is listed as “highly effective”. For the same molecule, in the assay on VZV [4] (0.5% N-MCT in ointments, daily, scan Day 5), the “effectiveness as topical formulation in SOC model” value is “highly effective”. In addition, in the assay on VZV [4] (no treatment after Day 5, groups treated with N-MCT), the “virus yield on Day 10 after treatment stopped, fold less” value was 100 fold.
